ChEMBL document CHEMBL2046386, “Potent and selective aminopyrimidine-based B-Raf inhibitors with favorable physicochemical and pharmacokinetic properties” (J Med Chem, 2012)
≈ marks a conversion by molar mass, not a printed value.

Key:
[1] = Cmax in mouse at 1 mg/kg, po dosed as crystalline suspension in 20%HPBCD vehicle (20% hydroxypropyl-beta-cyclodextrin/80% water); type: ADME, organism-based; design: dose 1 mg/kg, route oral; details: in vivo
[2] = AUC in mouse at 1 mg/kg, po dosed as crystalline suspension in 20%HPBCD vehicle (20% hydroxypropyl-beta-cyclodextrin/80% water); type: ADME, organism-based; design: dose 1 mg/kg, route oral; details: plasma
[3] = Oral bioavailability in mouse at 1 mg/kg dosed as crystalline suspension in 20%HPBCD vehicle (20% hydroxypropyl-beta-cyclodextrin/80% water); type: ADME, organism-based; details: in vivo
[4] = Cmax in mouse at 10 mg/kg, po dosed as crystalline suspension in 20%HPBCD vehicle (20% hydroxypropyl-beta-cyclodextrin/80% water); type: ADME, organism-based; design: dose 10 mg/kg, route oral; details: in vivo
[5] = AUC in mouse at 10 mg/kg, po dosed as crystalline suspension in 20%HPBCD vehicle (20% hydroxypropyl-beta-cyclodextrin/80% water); type: ADME, organism-based; design: dose 10 mg/kg, route oral; details: plasma
[6] = Oral bioavailability in mouse at 10 mg/kg dosed as crystalline suspension in 20%HPBCD vehicle (20% hydroxypropyl-beta-cyclodextrin/80% water); type: ADME, organism-based; details: in vivo
[7] = Cmax in mouse at 30 mg/kg, po dosed as crystalline suspension in 20%HPBCD vehicle (20% hydroxypropyl-beta-cyclodextrin/80% water); type: ADME, organism-based; design: dose 30 mg/kg, route oral; details: in vivo
[8] = Cmax in mouse at 50 mg/kg, po dosed as crystalline suspension in 20%HPBCD vehicle (20% hydroxypropyl-beta-cyclodextrin/80% water); type: ADME, organism-based; design: dose 50 mg/kg, route oral; details: in vivo
[9] = AUC in mouse at 50 mg/kg, po dosed as crystalline suspension in 20%HPBCD vehicle (20% hydroxypropyl-beta-cyclodextrin/80% water); type: ADME, organism-based; design: dose 50 mg/kg, route oral; details: plasma
Cytochrome P450 2C9 = Cytochrome P450 2C9 (Homo sapiens, UniProt P11712); assay: Inhibition of CYP2C9; type: ADME
[10] = Inhibition of cytochrome P450; type: ADME
[11] = biological target: Voltage-gated inwardly rectifying potassium channel KCNH2 (Homo sapiens, UniProt Q12809); assay: Inhibition of human Erg
Salmonella typhimurium = assay: Induction of mutagenesis in Salmonella typhimurium by Ames test; type: toxicity, organism-based; details: salmonella enterica subsp. enterica serovar typhimurium
COLO 205 [12] = assay: Antitumor activity against human COLO205 cells expressing B-raf V600E mutant xenografted in po dosed NCr nude mouse assessed as decrease in tumor volume administered once daily for 21 days measured twice a week up to 21 days; type: functional; details: for ED50 / ED90: Mus musculus, COLO 205, po, 504 h
Mus musculus = assay: Toxicity in NCr nude mouse xenografted with human COLO205 cells expressing B-raf V600E mutant assessed as adverse effects; type: organism-based, COLO 205; details: in vivo
[13] = Time-dependent inhibition of cytochrome P450; type: ADME
[14] = biological target: T1, Serine/threonine-protein kinase B-raf (Homo sapiens, UniProt P15056, V600E); assay: Inhibition of His6X-tagged human B-raf V600E mutant expressed in baculovirus infected insect cells coexpressing […] using [gamma33P]ATP after 60 mins by scintillation counting in presence of 1 mM ATP
[15] = AUC in mouse at 30 mg/kg, po dosed as crystalline suspension in 20%HPBCD vehicle (20% hydroxypropyl-beta-cyclodextrin/80% water); type: ADME, organism-based; design: dose 30 mg/kg, route oral; details: plasma
[16] = Oral bioavailability in mouse at 30 mg/kg dosed as crystalline suspension in 20%HPBCD vehicle (20% hydroxypropyl-beta-cyclodextrin/80% water); type: ADME, organism-based; details: in vivo
[17] = biological target: T1, Serine/threonine-protein kinase B-raf; assay: Inhibition of His6X-tagged human B-raf V600E mutant expressed in baculovirus infected insect cells coexpressing […] using [gamma33P]ATP after 60 mins by scintillation counting
[18] = biological target: T1, Serine/threonine-protein kinase B-raf; assay: Inhibition of B-raf V600E mutant-mediated Erk phosphorylation in human MALM-3M cells by fluorometric analysis; type: cell-based
[19] = Dissociation constant, pKa of the compound at basic pH; type: physicochemical
[20] = Thermodynamic solubility of the compound at 0.5 mg/ml after 24 hrs by shake flask method at pH 1.2; type: physicochemical; details: buffer, read-out: Therm_solubility
[21] = Thermodynamic solubility of the compound at 0.5 mg/ml after 24 hrs by shake flask method at pH 6.5; type: physicochemical; details: buffer, read-out: Therm_solubility
[22] = Clearance in mouse at 2.5 mg/kg, iv; type: ADME, organism-based; design: dose 2.5 mg/kg, route intravenous; details: in vivo
[23] = Volume of distribution at steady state in mouse at 2.5 mg/kg, iv; type: ADME, organism-based; design: dose 2.5 mg/kg, route intravenous; details: in vivo, read-out: Vdss
[24] = Plasma protein binding in mouse; type: ADME, cell-free; details: read-out: PPB (converted)
[25] = Lipophilicity, log P of the compound; type: physicochemical; details: octanol/water
[26] = biological target: Serine/threonine-protein kinase B-raf (Homo sapiens, UniProt P15056); assay: Inhibition of wild type B-raf in presence of 1 mM ATP
[27] = biological target: RAF proto-oncogene serine/threonine-protein kinase (Homo sapiens, UniProt P04049); assay: Inhibition of wild type C-raf in presence of 1 mM ATP
Homo sapiens [28] = organism: Homo sapiens; assay: Selectivity index, ratio of IC50 for wild-type B-raf to IC50 for human Braf V600E mutant
Homo sapiens [29] = organism: Homo sapiens; assay: Selectivity index, ratio of IC50 for wild-type C-raf to IC50 for human Braf V600E mutant
[30] = Antiproliferative activity against human A375.X1 cells expressing B-raf V600E mutant; type: functional, cell-based
COLO 205 [31] = assay: Antiproliferative activity against human COLO205 cells expressing B-raf V600E mutant; type: functional, cell-based
HT-29 = assay: Antiproliferative activity against human HT-29 cells expressing B-raf V600E mutant and high level of EGFR; type: functional, cell-based
RKO = assay: Antiproliferative activity against PTEN-deficient human RKO cells expressing B-raf V600E mutant and high level of EGFR; type: functional, cell-based
NCI-H226 = assay: Antiproliferative activity against human NCI-H226 cells expressing wild-type B-raf; type: functional, cell-based
[32] = Clearance in rat at 1 mg/kg, iv dosed as crystalline suspension in 20%HPBCD vehicle (20% hydroxypropyl-beta-cyclodextrin/80% water); type: ADME, organism-based; design: dose 1 mg/kg, route intravenous; details: in vivo
[33] = Volume of distribution at steady state in rat at 1 mg/kg, iv dosed as crystalline suspension in 20%HPBCD vehicle (20% hydroxypropyl-beta-cyclodextrin/80% water); type: ADME, organism-based; design: dose 1 mg/kg, route intravenous; details: in vivo, read-out: Vdss
[34] = Cmax in rat at 5 mg/kg, po dosed as crystalline suspension in 20%HPBCD vehicle (20% hydroxypropyl-beta-cyclodextrin/80% water); type: ADME, organism-based; design: dose 5 mg/kg, route oral; details: in vivo
[35] = AUC in rat at 5 mg/kg, po dosed as crystalline suspension in 20%HPBCD vehicle (20% hydroxypropyl-beta-cyclodextrin/80% water); type: ADME, organism-based; design: dose 5 mg/kg, route oral; details: plasma
[36] = Oral bioavailability in rat at 5 mg/kg dosed as crystalline suspension in 20%HPBCD vehicle (20% hydroxypropyl-beta-cyclodextrin/80% water); type: ADME, organism-based; details: in vivo
[37] = Cmax in rat at 25 mg/kg, po dosed as crystalline suspension in 20%HPBCD vehicle (20% hydroxypropyl-beta-cyclodextrin/80% water); type: ADME, organism-based; design: dose 25 mg/kg, route oral; details: in vivo
[38] = AUC in rat at 25 mg/kg, po dosed as crystalline suspension in 20%HPBCD vehicle (20% hydroxypropyl-beta-cyclodextrin/80% water); type: ADME, organism-based; design: dose 25 mg/kg, route oral; details: plasma
[39] = Oral bioavailability in rat at 25 mg/kg dosed as crystalline suspension in 20%HPBCD vehicle (20% hydroxypropyl-beta-cyclodextrin/80% water); type: ADME, organism-based; details: in vivo
[40] = Oral bioavailability in mouse at 30 mg/kg dosed as crystalline suspension in 20%HPBCD vehicle (20% hydroxypropyl-beta-cyclodextrin/80% water); details: in vivo
[41] = Dissociation constant, pKa of the compound at acidic pH; type: physicochemical
[42] = Thermodynamic solubility of the compound at 0.5 mg/ml after 24 hrs by shake flask method at pH 7.4; type: physicochemical; details: buffer, read-out: Therm_solubility
[43] = AUC in mouse at 30 mg/kg, po dosed in 0.5% methylcellulose/0.2% Tween 80/99.3% water; type: ADME, organism-based; design: dose 30 mg/kg, route oral; details: in vivo
[44] = Oral bioavailability in mouse at 30 mg/kg; type: ADME, organism-based; details: in vivo
[45] = AUC in mouse at 30 mg/kg, po dosed as as solution; type: ADME, organism-based; design: dose 30 mg/kg, route oral; details: plasma

T1 sequence (P15056 2-766 V600E limits assumed): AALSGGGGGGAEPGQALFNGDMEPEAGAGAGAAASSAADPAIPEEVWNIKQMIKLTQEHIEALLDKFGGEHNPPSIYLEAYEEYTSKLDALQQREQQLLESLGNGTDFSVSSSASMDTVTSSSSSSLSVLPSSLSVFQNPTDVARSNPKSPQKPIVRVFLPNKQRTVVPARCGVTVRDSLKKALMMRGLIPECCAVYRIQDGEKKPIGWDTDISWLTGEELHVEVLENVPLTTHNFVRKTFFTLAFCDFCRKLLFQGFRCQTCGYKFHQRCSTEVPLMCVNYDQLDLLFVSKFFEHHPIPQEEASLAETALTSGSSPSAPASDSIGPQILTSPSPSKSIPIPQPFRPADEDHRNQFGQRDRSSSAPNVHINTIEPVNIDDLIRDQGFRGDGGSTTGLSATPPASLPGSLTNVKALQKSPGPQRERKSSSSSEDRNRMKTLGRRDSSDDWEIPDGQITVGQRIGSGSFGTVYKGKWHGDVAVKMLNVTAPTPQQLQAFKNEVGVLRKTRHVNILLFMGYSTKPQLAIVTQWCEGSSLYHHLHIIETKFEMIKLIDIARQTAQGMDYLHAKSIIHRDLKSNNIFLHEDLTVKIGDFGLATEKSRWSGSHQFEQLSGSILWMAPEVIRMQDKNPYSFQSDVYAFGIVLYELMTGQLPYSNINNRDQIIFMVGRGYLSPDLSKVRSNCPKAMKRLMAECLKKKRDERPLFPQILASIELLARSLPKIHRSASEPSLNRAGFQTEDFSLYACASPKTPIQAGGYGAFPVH
Cytochrome P450 2C9, sequence (P11712 whole entry): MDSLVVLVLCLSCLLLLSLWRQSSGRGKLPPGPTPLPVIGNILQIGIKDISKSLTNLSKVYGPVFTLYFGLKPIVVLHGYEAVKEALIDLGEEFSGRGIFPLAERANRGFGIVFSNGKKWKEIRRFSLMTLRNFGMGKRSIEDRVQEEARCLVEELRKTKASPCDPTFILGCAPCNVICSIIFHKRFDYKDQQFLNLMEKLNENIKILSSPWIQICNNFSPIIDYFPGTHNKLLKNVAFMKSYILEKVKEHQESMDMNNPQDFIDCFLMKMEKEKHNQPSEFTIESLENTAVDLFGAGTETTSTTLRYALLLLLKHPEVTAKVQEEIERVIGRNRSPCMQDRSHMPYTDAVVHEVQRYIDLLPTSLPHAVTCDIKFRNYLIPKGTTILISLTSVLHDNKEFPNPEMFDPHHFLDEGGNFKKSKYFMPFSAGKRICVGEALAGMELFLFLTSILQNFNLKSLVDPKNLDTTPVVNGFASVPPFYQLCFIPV
Serine/threonine-protein kinase B-raf (Homo sapiens, UniProt P15056), sequence (P15056 whole entry): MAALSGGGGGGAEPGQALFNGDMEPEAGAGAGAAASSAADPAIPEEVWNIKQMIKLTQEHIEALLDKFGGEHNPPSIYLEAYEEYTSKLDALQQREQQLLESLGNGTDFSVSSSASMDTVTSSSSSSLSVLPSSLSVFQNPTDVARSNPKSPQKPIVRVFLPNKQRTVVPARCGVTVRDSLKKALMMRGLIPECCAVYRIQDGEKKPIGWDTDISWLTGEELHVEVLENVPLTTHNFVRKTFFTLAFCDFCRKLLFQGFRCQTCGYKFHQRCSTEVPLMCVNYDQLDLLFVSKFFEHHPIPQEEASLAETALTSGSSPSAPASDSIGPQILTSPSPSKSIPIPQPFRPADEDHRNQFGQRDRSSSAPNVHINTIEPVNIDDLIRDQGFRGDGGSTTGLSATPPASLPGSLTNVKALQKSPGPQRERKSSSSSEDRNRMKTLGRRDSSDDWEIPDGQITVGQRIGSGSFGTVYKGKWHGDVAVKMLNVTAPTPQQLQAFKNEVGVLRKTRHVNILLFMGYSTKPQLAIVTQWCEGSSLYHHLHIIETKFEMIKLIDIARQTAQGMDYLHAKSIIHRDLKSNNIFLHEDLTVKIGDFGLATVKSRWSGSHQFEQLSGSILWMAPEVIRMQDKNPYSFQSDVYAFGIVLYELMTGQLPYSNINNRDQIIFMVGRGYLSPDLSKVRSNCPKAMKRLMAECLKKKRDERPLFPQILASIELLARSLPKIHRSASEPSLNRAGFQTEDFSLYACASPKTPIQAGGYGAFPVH
RAF proto-oncogene serine/threonine-protein kinase, sequence (P04049 whole entry): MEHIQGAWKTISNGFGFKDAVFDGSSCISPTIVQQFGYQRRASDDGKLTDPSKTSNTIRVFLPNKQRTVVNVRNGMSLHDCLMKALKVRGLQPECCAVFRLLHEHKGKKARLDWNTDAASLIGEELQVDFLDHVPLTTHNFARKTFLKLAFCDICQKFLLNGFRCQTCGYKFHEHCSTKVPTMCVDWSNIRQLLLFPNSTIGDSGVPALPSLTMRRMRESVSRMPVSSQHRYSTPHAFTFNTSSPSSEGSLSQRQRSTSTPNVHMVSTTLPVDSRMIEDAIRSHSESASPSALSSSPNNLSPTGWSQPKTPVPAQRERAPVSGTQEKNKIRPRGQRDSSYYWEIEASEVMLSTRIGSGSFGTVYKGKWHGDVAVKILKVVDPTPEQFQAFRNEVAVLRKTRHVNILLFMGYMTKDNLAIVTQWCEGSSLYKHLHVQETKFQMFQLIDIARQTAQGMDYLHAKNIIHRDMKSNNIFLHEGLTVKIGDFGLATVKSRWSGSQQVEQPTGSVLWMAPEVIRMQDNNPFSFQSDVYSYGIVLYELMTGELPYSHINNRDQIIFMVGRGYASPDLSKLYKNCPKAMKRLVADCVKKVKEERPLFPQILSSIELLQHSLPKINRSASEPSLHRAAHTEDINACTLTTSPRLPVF
Voltage-gated inwardly rectifying potassium channel KCNH2, sequence (Q12809 whole entry): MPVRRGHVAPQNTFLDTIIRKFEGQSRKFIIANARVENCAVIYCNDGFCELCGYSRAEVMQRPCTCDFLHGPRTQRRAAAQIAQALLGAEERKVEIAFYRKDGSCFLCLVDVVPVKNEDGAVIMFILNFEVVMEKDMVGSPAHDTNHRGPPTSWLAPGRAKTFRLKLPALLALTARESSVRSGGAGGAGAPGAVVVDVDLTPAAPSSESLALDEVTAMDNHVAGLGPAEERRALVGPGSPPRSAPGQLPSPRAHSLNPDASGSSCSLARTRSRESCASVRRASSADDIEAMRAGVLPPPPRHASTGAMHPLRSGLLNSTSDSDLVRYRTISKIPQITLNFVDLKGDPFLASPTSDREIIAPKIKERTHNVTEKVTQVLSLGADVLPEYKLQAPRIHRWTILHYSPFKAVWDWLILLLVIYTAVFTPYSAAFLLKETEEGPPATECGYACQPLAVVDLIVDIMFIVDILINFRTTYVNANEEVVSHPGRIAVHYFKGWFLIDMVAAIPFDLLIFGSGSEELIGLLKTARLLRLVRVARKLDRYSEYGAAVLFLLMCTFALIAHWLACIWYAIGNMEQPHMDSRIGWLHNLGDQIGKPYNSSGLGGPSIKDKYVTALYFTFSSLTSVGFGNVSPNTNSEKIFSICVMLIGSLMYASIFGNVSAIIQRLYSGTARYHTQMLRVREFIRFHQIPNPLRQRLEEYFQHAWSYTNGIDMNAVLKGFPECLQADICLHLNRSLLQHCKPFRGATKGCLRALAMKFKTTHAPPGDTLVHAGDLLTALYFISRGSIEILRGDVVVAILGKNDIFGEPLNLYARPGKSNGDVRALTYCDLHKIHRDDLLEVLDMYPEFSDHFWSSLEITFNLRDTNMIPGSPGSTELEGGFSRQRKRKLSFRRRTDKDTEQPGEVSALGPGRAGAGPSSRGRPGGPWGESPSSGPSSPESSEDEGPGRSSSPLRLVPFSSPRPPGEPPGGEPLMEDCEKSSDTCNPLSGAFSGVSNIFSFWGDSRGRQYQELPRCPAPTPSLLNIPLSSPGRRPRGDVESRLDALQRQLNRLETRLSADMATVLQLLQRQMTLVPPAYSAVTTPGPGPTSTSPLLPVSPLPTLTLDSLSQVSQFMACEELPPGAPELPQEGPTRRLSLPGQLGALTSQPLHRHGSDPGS

Nc1ncnc2c(C(=O)Nc3c(Cl)ccc(NS(=O)(=O)CCCF)c3F)csc12
Cmax [1]: 7.93 µM
AUC [2]: 84 µM·h
bioavailability [3]: > 100%
Cmax [4]: 73 µM
AUC [5]: 867 µM·h
bioavailability [6]: > 100%
Cmax [7]: 162 µM
Cmax [8]: 249 µM
AUC [9]: 3250 µM·h
IC50 (Cytochrome P450 2C9): 9000 nM
IC50 [10]: > 25000 nM
inhibition (INH) [11]: Not Active
Activity (Salmonella typhimurium): Non-toxic
TGI (COLO 205 [12]): 130%
ED50 (COLO 205 [12]): 1.1 mg/kg
ED90 (COLO 205 [12]): 6.2 mg/kg
Activity (Mus musculus): Non-toxic
inhibition (INH) [13]: Not Active
IC50 [14]: 2 nM
AUC [15]: 1680 µM·h
bioavailability [16]: > 100%
IC50 [17]: 0.18 nM
IC50 [18]: 4.6 nM
pKa [19]: 3.6
solubility thermodynamic at 24 h [20]: 700 µg/mL (≈ 1520 µM)
solubility thermodynamic at 24 h [21]: 10 µg/mL (≈ 21.6 µM)
clearance [22]: 0.79 mL/min/kg
Vd [23]: 0.12 L/kg
fraction unbound [24]: 0.03
logP [25]: 3.6
IC50 [26]: 22 nM
IC50 [27]: 73 nM
Ratio IC50 (Homo sapiens [28]): 11
Ratio IC50 (Homo sapiens [29]): 152
EC50 [30]: 2 nM
EC50 (COLO 205 [31]): 5 nM
EC50 (HT-29): 24 nM
EC50 (RKO): 2310 nM
EC50 (NCI-H226): > 10000 nM
clearance [32]: 0.19 mL/min/kg
Vd [33]: 0.14 L/kg
Cmax [34]: 44.5 µM
AUC [35]: 651 µM·h
bioavailability [36]: 68%
Cmax [37]: 201 µM
AUC [38]: 2970 µM·h
bioavailability [39]: 62%
bioavailability [40]: > 100%

Nc1ncnc2c(C(=O)Nc3c(Cl)ccc(NS(=O)(=O)CCCF)c3F)cccc12
IC50 [17]: 0.11 nM
IC50 [18]: 2.5 nM

CCCS(=O)(=O)Nc1ccc(F)c(NC(=O)Nc2ncnc3[nH]ncc23)c1F
IC50 [17]: 5.6 nM
IC50 [18]: 88 nM
solubility thermodynamic at 24 h [20]: 7 µg/mL (≈ 17 µM)

CCCS(=O)(=O)Nc1ccc(F)c(C(=O)Nc2cnc3[nH]nc(OC)c3c2)c1F
TGI (COLO 205 [12]): 76%
ED50 (COLO 205 [12]): 25.2 mg/kg
ED90 (COLO 205 [12]): 139 mg/kg
pKa [41]: 0.7
pKa [19]: 0.7
solubility thermodynamic at 24 h [20]: 3 µg/mL (≈ 7.05 µM)
solubility thermodynamic at 24 h [21]: 4 µg/mL (≈ 9.4 µM)
solubility thermodynamic at 24 h [42]: 9 µg/mL (≈ 21.2 µM)

CCCS(=O)(=O)Nc1ccc(F)c(NC(=O)c2cccc3c(N)ncnc23)c1Cl
IC50 [17]: 0.54 nM
IC50 [18]: 7.7 nM

CCCS(=O)(=O)Nc1ccc(F)c(NC(=O)c2cccc3c(N)ncnc23)c1F
IC50 [17]: 1.8 nM
IC50 [18]: 9.5 nM
pKa [41]: 4.5
pKa [19]: 4.5
solubility thermodynamic at 24 h [20]: > 1000 µg/mL
solubility thermodynamic at 24 h [21]: 1 µg/mL (≈ 2.37 µM)
clearance [22]: 2.5 mL/min/kg
Vd [23]: 0.4 L/kg
AUC [43]: 290 µM·h
bioavailability [44]: 71%
fraction unbound [24]: 0.015
logP [25]: 2.9
AUC [45]: 331 µM·h

CCCS(=O)(=O)Nc1ccc(F)c(NC(=O)c2csc3c(N)ncnc23)c1F
Activity (Mus musculus): Non-toxic
IC50 [17]: 2.5 nM
IC50 [18]: 15 nM
pKa [19]: 3.6
solubility thermodynamic at 24 h [20]: > 1000 µg/mL
solubility thermodynamic at 24 h [21]: 5 µg/mL (≈ 11.7 µM)
clearance [22]: 1 mL/min/kg
Vd [23]: 0.2 L/kg
AUC [43]: 874 µM·h
bioavailability [44]: 100%
fraction unbound [24]: 0.016
logP [25]: 2.7
